The results in this text go back to patent US20090197859A1 (Pfizer Inc., priority 2008, published 2009).

Each structure is given as a SMILES string.

One may read the melting point as the temperature of the solid-liquid transition.

Data set [1] addresses T1, cloned human 5-HT6 receptor (Homo sapiens, UniProt P50406).
T1 construct: host or cells: HeLa cells, G-418 selection, membrane preparation
The experiment in a line: 5-HT6 Receptor Binding Assay ([3H]-LSD radioligand, SPA). The following applies: read-out: 5HT6 % inh @ 1 uM. The essentials: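 Membranes from HeLa cells expressing cloned human 5-HT6 receptor, mixed with WGA-coated SPA beads in 20 mM HEPES, 10 mM MgCl2, 150 mM NaCl, 1 mM EDTA pH 7.4 with [3H]-LSD; 1 h at room temperature. Eleven concentrations in duplicate; one-site fit IC50 converted to Ki by Cheng-Prusoff.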

T1 sequence (P50406 whole entry): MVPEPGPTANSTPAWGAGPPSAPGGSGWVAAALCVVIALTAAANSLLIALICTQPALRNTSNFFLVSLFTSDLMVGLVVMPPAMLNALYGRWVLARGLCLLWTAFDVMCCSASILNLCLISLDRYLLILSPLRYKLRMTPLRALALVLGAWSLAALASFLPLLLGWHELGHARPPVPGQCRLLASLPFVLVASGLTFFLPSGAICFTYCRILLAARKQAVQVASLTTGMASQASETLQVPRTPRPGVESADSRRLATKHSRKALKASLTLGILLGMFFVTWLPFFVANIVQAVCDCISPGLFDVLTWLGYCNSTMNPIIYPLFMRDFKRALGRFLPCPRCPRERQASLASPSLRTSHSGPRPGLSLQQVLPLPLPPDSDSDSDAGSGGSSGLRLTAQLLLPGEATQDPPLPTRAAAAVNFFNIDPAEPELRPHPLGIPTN

The compound `O=C(c1cccc(N2CCCNCC2)n1)N1CC[C@H](Oc2ccc(F)cc2)C1` [Example 25, (6-[1,4]Diazepan-1-yl-pyridin-2-yl)-[(S)-3-(4-fluoro-phenoxy)-pyrrolidin-1-yl]-methanone] had a melting point of 72 to 74 °C. Also, in data set [1], the inhibition at 1 µM stood at 75.4%.
The corresponding values for `CN1CCCN(c2cccc(C(=O)N3CCC[C@H](Oc4cccc(Cl)c4)C3)n2)CC1` [Example 87, [(S)-3-(3-Chloro-phenoxy)-piperidin-1-yl]-[6-(4-methyl-[1,4]diazepan-1-yl)-pyridin-2-yl]-methanone] are 110 to 112 °C and 98.9%.
The corresponding values for `Cc1ccc(O[C@H]2CCCN(C(=O)c3cccc(N4CCCNCC4)n3)C2)cc1` [Example 41, (6-[1,4]Diazepan-1-yl-pyridin-2-yl)-((S)-3-p-tolyloxy-piperidin-1-yl)-methanone] are 157.6 to 158.2 °C and 94.7%.
As for `CN1CCN(c2cccc(C(=O)N(C)Cc3ccccc3C(F)(F)F)n2)CC1` [Example 92, 6-(4-Methyl-piperazin-1-yl)-pyridine-2-carboxylic acid methyl-(2-trifluoromethyl-benzyl)-amide], the melting point is 199.5 to 200.6 °C. In addition, the inhibition at 1 µM in data set [1] turned out to be 83%.
Take `Cc1cccc(O[C@H]2CCCN(C(=O)c3cccc(N4CCCN(C)CC4)n3)C2)c1` [Example 86, [6-(4-Methyl-[1,4]diazepan-1-yl)-pyridin-2-yl]-((S)-3-m-tolyloxy-piperidin-1-yl)-methanone]: the melting point is 118 to 120 °C. For the same compound, the inhibition at 1 µM in data set [1] stood at 99.5%.
Regarding `CN1CCN(c2cccc(C(=O)N3CCCC[C@@H]3c3ccc(F)cc3)n2)CC1` [Example 67, [(R)-2-(4-Fluoro-phenyl)-piperidin-1-yl]-[6-(4-methyl-piperazin-1-yl)-pyridin-2-yl]-methanone], the melting point fell in the range of 130.8 to 131.5 °C. Further, the inhibition at 1 µM in data set [1] is 79.1%.
Compound `Cc1cccc(O[C@@H]2CCN(C(=O)c3cccc(N4CCCN(C)CC4)n3)C2)c1` [Example 19, [6-(4-Methyl-[1,4]diazepan-1-yl)-pryidin-2-yl]-((R)-3-m-tolyloxy-pyrrolidin-1-yl)-methanone] yielded a melting point of 82 to 84 °C. Besides, the inhibition at 1 µM in data set [1] turned out to be 78.5%.
The corresponding values for `CN1CCN(c2cccc(C(=O)N(C)Cc3cccc(F)c3)n2)CC1` [Example 70, 6-(4-Methyl-piperazin-1-yl)-pyridine-2-carboxylic acid (3-fluoro-benzyl)-methyl-amide] are 77 to 78 °C and 74.9%.
The corresponding values for `O=C(c1cccc(N2CCCNCC2)n1)N1CCC[C@@H](Oc2cccc(F)c2)C1` [Example 50, (6-[1,4]Diazepan-1-yl-pyridin-2-yl)-[(R)-3-(3-fluoro-phenoxy)-piperidin-1-yl]-methanone] are 172 to 174 °C and 89.6%.
The corresponding values for `CN1CCN(c2cccc(C(=O)N(C)Cc3ccccc3F)n2)CC1` [Example 64, 6-(4-Methyl-piperazin-1-yl)-pyridine-2-carboxylic acid (2-fluoro-benzyl)-methyl-amide] are 80 to 81 °C and 87.6%.
As for `Cc1cccc([C@H]2CCCCN2C(=O)c2cccc(N3CCN(C)CC3)n2)c1` [Example 52, [6-(4-Methyl-piperazin-1-yl)-pyridin-2-yl]-((R)-2-m-tolyl-piperidin-1-yl)-methanone], the melting point fell in the range of 142 to 142.5 °C. Besides, the inhibition at 1 µM in data set [1] was found to be 96.3%.
Turning to `Cc1ccc(O[C@H]2CCN(C(=O)c3cccc(N4CCCNCC4)n3)C2)cc1` [Example 43, (6-[1,4]Diazepan-1-yl-pyridin-2-yl)-((S)-3-p-tolyloxy-pyrrolidin-1-yl)-methanone], the melting point was in the range of 90 to 92 °C. Besides, in data set [1], the inhibition at 1 µM is 97.7%.
Take `Cc1cccc(O[C@H]2CCN(C(=O)c3cccc(N4CCCNCC4)n3)C2)c1` [Example 42, (6-[1,4]Diazepan-1-yl-pyridin-2-yl)-((S)-3-m-tolyloxy-pyrrolidin-1-yl)-methanone]: the melting point lay in the range of 116 to 118 °C. Also, the inhibition at 1 µM in data set [1] was 99.4%.
In the same order, the values of `O=C(c1cccc(N2CCNCC2)n1)N1CCCCC1c1cccc(F)c1` (centres unmarked) [Example 27, [2-(3-Fluoro-phenyl)-piperidin-1-yl]-(6-piperazin-1-yl-pyridin-2-yl)-methanone] are 156.8 to 157 °C and 94.5%.
`Cc1ccc(CN(C)C(=O)c2cccc(N3CCN(C)CC3)n2)cc1` [Example 90, 6-(4-Methyl-piperazin-1-yl)-pyridine-2-carboxylic acid methyl-(4-methyl-benzyl)-amide] returned a melting point of 98 to 99 °C. Besides, in data set [1], the inhibition at 1 µM worked out at 89.4%.
Compound `Cc1ccccc1O[C@H]1CCN(C(=O)c2cccc(N3CCCNCC3)n2)C1` [Example 36, (6-[1,4]Diazepan-1-yl-pyridin-2-yl)-((S)-3-o-tolyloxy-pyrrolidin-1-yl)-methanone] came in with a melting point of 140 to 142 °C. Also, in data set [1], the inhibition at 1 µM was 93.5%.
In the same order, the values of `Cc1ccccc1[C@@H]1CCCCN1C(=O)c1cccc(N2CCN(C)CC2)n1` [Example 63, [6-(4-Methyl-piperazin-1-yl)-pyridin-2-yl]-((S)-2-o-tolyl-piperidin-1-yl)-methanone] are 136.7 to 137.2 °C and 77.4%.
In the same order, the values of `Cc1ccc([C@H]2CCCCN2C(=O)c2cccc(N3CCN(C)CC3)n2)cc1` [Example 66, [6-(4-Methyl-piperazin-1-yl)-pyridin-2-yl]-((R)-2-p-tolyl-piperidin-1-yl)-methanone] are 143.3 to 144 °C and 82.1%.
The corresponding values for `Cc1ccc(F)cc1C1CCN(C(=O)c2cccc(C3CCN(C)C3)n2)CC1` (centres unmarked) [Example 112, [4-(5-Fluoro-2-methyl-phenyl)-piperidin-1-yl]-[6-(1-methyl-pyrrolidin-3-yl)-pyridin-2-yl]-methanone] are 139.6 to 141.41 °C and 97.7%.
On to `COc1ccccc1CN(C)C(=O)c1cccc(N2CCN(C)CC2)n1` [Example 72, 6-(4-Methyl-piperazin-1-yl)-pyridine-2-carboxylic acid (2-methoxy-benzyl)-methyl-amide], for which the melting point fell in the range of 75 to 76 °C. Further, in data set [1], the inhibition at 1 µM worked out at 89.9%.
As for `O=C(c1cccc(N2CCCNCC2)n1)N1CCC[C@H](Oc2cccc(F)c2)C1` [Example 38, (6-[1,4]Diazepan-1-yl-pyridin-2-yl)-[(S)-3-(3-fluoro-phenoxy)-piperidin-1-yl]-methanone], the melting point was 96.9 to 97.5 °C. Further, in data set [1], the inhibition at 1 µM was 99.4%.
As for `Cc1cccc(F)c1C1CCN(C(=O)c2cccc(C3CCN(C)C3)n2)CC1` (centres unmarked) [Example 111, [4-(2-Fluoro-6-methyl-phenyl)-piperidin-1-yl]-[6-(1-methyl-pyrrolidin-3-yl)-pyridin-2-yl]-methanone], the melting point fell in the range of 122.6 to 123.2 °C. Further, in data set [1], the inhibition at 1 µM is 104%.
The corresponding values for `CN1CCCN(c2cccc(C(=O)N3CCC[C@H](Oc4cccc(F)c4)C3)n2)CC1` [Example 85, [(S)-3-(3-Fluoro-phenoxy)-piperidin-1-yl]-[6-(4-methyl-[1,4]diazepan-1-yl)-pyridin-2-yl]-methanone] are 113 to 115 °C and 99.1%.
Compound `O=C(c1cccc(N2CCCNCC2)n1)N1CCCCC1c1ccccc1F` (centres unmarked) [Example 31, (6-[1,4]Diazepan-1-yl-pyridin-2-yl)-[2-(2-fluoro-phenyl)-piperidin-1-yl]-methanone] showed a melting point of 183.4 to 184 °C. Moreover, the inhibition at 1 µM in data set [1] came to 94.5%.
In the same order, the values of `CN1CCN(c2cccc(C(=O)N(C)Cc3ccccc3Cl)n2)CC1` [Example 65, 6-(4-Methyl-piperazin-1-yl)-pyridine-2-carboxylic acid (2-chloro-benzyl)-methyl-amide] are 73 to 74 °C and 89.6%.
The corresponding values for `Cc1ccccc1O[C@H]1CCCN(C(=O)c2cccc(N3CCCNCC3)n2)C1` [Example 45, (6-[1,4]Diazepan-1-yl-pyridin-2-yl)-((S)-3-o-tolyloxy-piperidin-1-yl)-methanone] are 118 to 119.7 °C and 95.4%.
As to `Cc1ccc(C2CCCCN2C(=O)c2cccc(N3CCCNCC3)n2)cc1` (centres unmarked) [Example 37, (6-[1,4]Diazepan-1-yl-pyridin-2-yl)-(2-p-tolyl-piperidin-1-yl)-methanone], the melting point fell in the range of 147.9 to 148.5 °C. In addition, the inhibition at 1 µM in data set [1] is 71.6%.
As to `Cc1cc(F)ccc1C1CCN(C(=O)c2cccc(N3CCN(C)CC3)n2)CC1` [Example 105, [4-(4-Fluoro-2-methyl-phenyl)-piperidin-1-yl]-[6-(4-methyl-piperazin-1-yl)-pyridin-2-yl]-methanone], the melting point lay in the range of 156.4 to 157.7 °C. For the same compound, the inhibition at 1 µM in data set [1] is 97.6%.
